pIC50: −log10 of the molar value.

For orientation: pIC50 means −log10 of the IC50, conventionally taken in molar units.

T1 sequence (O95180 whole entry): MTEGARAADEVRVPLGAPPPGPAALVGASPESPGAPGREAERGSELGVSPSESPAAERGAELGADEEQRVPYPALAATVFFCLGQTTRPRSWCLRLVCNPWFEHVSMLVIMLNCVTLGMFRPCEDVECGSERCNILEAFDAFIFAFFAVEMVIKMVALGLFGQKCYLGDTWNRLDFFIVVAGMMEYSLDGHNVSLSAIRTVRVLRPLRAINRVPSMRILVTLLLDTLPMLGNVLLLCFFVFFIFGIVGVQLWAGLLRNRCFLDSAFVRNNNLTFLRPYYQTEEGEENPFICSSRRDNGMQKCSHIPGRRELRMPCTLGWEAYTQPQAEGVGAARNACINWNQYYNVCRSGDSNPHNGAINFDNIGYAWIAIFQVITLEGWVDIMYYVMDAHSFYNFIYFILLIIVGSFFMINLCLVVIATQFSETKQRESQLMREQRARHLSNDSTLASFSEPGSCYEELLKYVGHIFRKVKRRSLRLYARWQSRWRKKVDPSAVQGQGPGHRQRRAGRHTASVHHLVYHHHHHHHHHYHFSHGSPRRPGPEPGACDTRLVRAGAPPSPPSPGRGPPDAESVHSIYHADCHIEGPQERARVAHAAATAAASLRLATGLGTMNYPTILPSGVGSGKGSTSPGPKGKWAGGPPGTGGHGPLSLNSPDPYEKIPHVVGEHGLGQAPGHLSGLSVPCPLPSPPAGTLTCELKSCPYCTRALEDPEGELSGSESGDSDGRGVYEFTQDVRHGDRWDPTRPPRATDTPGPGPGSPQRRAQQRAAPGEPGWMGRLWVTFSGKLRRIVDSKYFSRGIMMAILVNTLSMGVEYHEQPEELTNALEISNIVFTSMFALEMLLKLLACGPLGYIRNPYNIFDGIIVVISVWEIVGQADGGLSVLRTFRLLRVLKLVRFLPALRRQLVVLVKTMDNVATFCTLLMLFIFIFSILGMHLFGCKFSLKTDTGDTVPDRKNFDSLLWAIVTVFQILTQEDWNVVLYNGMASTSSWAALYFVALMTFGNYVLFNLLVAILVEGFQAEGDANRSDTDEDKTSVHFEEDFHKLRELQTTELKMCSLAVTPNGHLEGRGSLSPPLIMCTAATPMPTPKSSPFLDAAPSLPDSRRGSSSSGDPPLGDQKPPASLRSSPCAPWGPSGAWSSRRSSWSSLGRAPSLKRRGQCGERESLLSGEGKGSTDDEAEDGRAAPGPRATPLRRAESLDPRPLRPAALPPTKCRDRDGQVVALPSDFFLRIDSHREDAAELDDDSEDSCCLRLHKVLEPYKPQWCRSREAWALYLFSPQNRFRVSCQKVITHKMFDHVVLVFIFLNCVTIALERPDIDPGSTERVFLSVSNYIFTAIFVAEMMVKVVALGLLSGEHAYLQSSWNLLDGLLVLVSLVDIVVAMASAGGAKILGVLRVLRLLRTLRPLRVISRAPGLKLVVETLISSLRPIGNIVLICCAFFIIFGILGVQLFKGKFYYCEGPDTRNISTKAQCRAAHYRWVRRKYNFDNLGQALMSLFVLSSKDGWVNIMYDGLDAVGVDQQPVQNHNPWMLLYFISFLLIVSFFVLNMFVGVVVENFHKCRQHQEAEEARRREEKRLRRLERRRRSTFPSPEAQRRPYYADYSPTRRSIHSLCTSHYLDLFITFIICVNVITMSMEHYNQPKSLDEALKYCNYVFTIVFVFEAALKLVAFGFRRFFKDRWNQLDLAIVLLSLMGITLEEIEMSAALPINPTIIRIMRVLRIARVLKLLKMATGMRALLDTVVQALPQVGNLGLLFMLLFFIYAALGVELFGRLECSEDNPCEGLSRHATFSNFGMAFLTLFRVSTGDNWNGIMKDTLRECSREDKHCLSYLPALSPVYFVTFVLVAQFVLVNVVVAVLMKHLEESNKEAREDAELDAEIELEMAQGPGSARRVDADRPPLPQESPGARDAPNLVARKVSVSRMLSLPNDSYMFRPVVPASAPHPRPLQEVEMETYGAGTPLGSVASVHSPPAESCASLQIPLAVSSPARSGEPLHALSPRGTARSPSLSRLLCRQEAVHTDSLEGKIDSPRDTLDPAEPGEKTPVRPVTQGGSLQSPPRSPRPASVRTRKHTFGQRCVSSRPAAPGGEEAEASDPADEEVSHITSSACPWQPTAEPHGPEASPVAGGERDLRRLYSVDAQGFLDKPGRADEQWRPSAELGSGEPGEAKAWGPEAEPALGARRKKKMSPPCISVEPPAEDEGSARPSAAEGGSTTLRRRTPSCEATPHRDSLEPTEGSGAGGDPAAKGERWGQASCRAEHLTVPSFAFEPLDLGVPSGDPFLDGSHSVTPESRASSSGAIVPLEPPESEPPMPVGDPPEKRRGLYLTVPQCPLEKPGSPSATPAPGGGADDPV

The first assay has as its target T1, human Cav3.2 T-type Ca2+ channel (Homo sapiens, UniProt O95180).
T1 construct: expressed in transfected cells; host or cells: KJMGER8 cells (Namalwa cell-derived cell line)
The assay is described as follows: Inhibitory effect for intracellular calcium response via Cav3.2 T-type Ca2+ channels (FLIPR Calcium 3 Assay Kit). Type of assay: cell-based.
Conditions: not given
Background: Calcium flux is commonly read through the fluorescence of an indicator in the cells.
As for `Cc1cc(C(C)C(=O)NC2CCOCC2)cc2nc(C(F)(F)F)c(CC3CCC(F)(F)CC3)n12` (stereo not drawn) [Compound 89, 2-{3-[(4,4-Difluorocyclohexyl)methyl]-5-methyl-2-(trifluoromethyl)imidazo[1,2-a]pyridin-7-yl}-N-(tetrahydro-2H-pyran-4-yl)propanamide], the pIC50 was not below 7.00.

Take `Cc1cc(C(O)C(O)c2ccccc2)cc2nc(C(F)(F)F)c(CC3CCC(F)(F)CC3)n12` (stereo not drawn) [Compound 94, 1-{3-[(4,4-Difluorocyclohexyl)methyl]-5-methyl-2-(trifluoromethyl)imidazo[1,2-a]pyridin-7-yl}-2-phenylethane-1,2-diol]: the pIC50 is not below 7.00.

For the compound `O=C(NC1CC(CO)(CO)C1)c1cc(Cl)n2c(CC3CCC(F)(F)CC3)c(C(F)(F)F)nc2c1` [Compound 95, N-[3,3-Bis(hydroxymethyl)cyclobutyl]-5-chloro-3-[(4,4-difluorocyclohexyl)methyl]-2-(trifluoromethyl)imidazo[1,2-a]pyridine-7-carboxamide], the pIC50 was not below 7.00.

Turning to `O=C(NCc1ccncc1)c1cc(Cl)n2c(CC3CCC(F)(F)CC3)c(C(F)(F)F)nc2c1` [Compound 97], the negative logarithm of the IC50 (pIC50) was not below 7.00.

On to `O=C(NCc1ccccc1)c1cc(Cl)n2c(CC3CCC(F)(F)CC3)c(C(F)(F)F)nc2c1` [Compound 98, N-Benzyl-5-chloro-3-[(4,4-difluorocyclohexyl)methyl]-2-(trifluoromethyl)imidazo[1,2-a]pyridine-7-carboxamide], for which the pIC50 is not below 7.00.

Take `O=C(NCCN1CCCCC1)c1cc(Cl)n2c(CC3CCC(F)(F)CC3)c(C(F)(F)F)nc2c1` [Compound 99, 5-Chloro-3-[(4,4-difluorocyclohexyl)methyl]-N-[2-(piperidin-1-yl)ethyl]-2-(trifluoromethyl)imidazo[1,2-a]pyridine-7-carboxamide]: the negative-log IC50 (pIC50) was not below 7.00.

Regarding `O=C(NCCCn1ccnc1)c1cc(Cl)n2c(CC3CCC(F)(F)CC3)c(C(F)(F)F)nc2c1` [Compound 100, N-[3-(1H-Imidazol-1-yl)propyl]-5-chloro-3-[(4,4-difluorocyclohexyl)methyl]-2-(trifluoromethyl)imidazo[1,2-a]pyridine-7-carboxamide], the pIC50 is not below 7.00.

As for `O=C(NCCc1c[nH]cn1)c1cc(Cl)n2c(CC3CCC(F)(F)CC3)c(C(F)(F)F)nc2c1` [Compound 104], the negative-log IC50 (pIC50) was not below 7.00.

For the compound `O=C(NCc1ccccn1)c1cc(Cl)n2c(CC3CCC(F)(F)CC3)c(C(F)(F)F)nc2c1` [Compound 106], the negative-log IC50 (pIC50) was not below 7.00.

For the compound `CCOC(=O)CNC(=O)c1cc(Cl)n2c(CC3CCC(F)(F)CC3)c(C(F)(F)F)nc2c1` [Compound 110, Ethyl 2-{5-chloro-3-[(4,4-difluorocyclohexyl)methyl]-2-(trifluoromethyl)imidazo[1,2-a]pyridine-7-carboxamide}acetate], the pIC50 is not below 7.00.

As to `CC(C)(C)OC(=O)NCCNC(=O)c1cc(Cl)n2c(CC3CCC(F)(F)CC3)c(C(F)(F)F)nc2c1` [Compound 115, tert-Butyl 2-{5-chloro-3-[(4,4-difluorocyclohexyl)methyl]-2-(trifluoromethyl)imidazo[1,2-a]pyridine-7-carboxamide}ethylcarbamate], the pIC50 was not below 7.00.

In the case of `CCOC(=O)C(C)NC(=O)c1cc(Cl)n2c(CC3CCC(F)(F)CC3)c(C(F)(F)F)nc2c1` (stereo not drawn) [Compound 123, Ethyl 2-{5-chloro-3-[(4,4-difluorocyclohexyl)methyl]-2-(trifluoromethyl)imidazo[1,2-a]pyridine-7-carboxamide}propanoate], the pIC50 is not below 7.00.

As for `CCOC(=O)C(=O)CNC(=O)c1cc(C)n2c(CC3CCC(F)(F)CC3)c(C(F)(F)F)nc2c1` [Compound 124, Ethyl 3-{3-[(4,4-difluorocyclohexyl)methyl]-5-methyl-2-(trifluoromethyl)imidazo[1,2-a]pyridine-7-carboxamide}-2-oxopropanoate], the pIC50 is not below 7.00.

As for `O=C(NCC1(O)CC1)c1cc(Cl)n2c(CC3CCC(F)(F)CC3)c(C(F)(F)F)nc2c1` [Compound 125, 5-Chloro-3-[(4,4-difluorocyclohexyl)methyl]-N-[(1-hydroxycyclopropyl)methyl]-2-(trifluoromethyl)imidazo[1,2-a]pyridine-7-carboxamide], the pIC50 is not below 7.00.

Turning to `CC(F)(F)c1nc2cc(C(=O)NC3CCC4(CC3)COC4)c(Cl)cn2c1CC1CCC(F)(F)CC1` [Compound 127, 6-Chloro-3-[(4,4-difluorocyclohexyl)methyl]-2-(1,1-difluoroethyl)-N-(2-oxaspiro[3.5]nonan-7-yl)imidazo[1,2-a]pyridine-7-carboxamide], the pIC50 is not below 7.00.

With `CC(NC(=O)c1cc(Cl)n2c(CC3CCC(F)(F)CC3)c(C(F)(F)F)nc2c1)C(=O)NC1CCOCC1` (stereo not drawn) [Compound 128, 5-Chloro-3-[(4,4-difluorocyclohexyl)methyl]-N-[1-oxo-1-(tetrahydro-2H-pyran-4-ylamino)propan-2-yl]-2-(trifluoromethyl)imidazo[1,2-a]pyridine-7-carboxamide], the negative-log IC50 (pIC50) is not below 7.00.

On to `O=C(CNC(=O)c1cc(Cl)n2c(CC3CCC(F)(F)CC3)c(C(F)(F)F)nc2c1)NC1CCOC1` (stereo not drawn) [Compound 131, 5-Chloro-3-[(4,4-difluorocyclohexyl)methyl]-N-[2-oxo-2-(tetrahydrofuran-3-ylamino)ethyl]-2-(trifluoromethyl)imidazo[1,2-a]pyridine-7-carboxamide], for which the pIC50 was not below 7.00.

For `COc1c(C(=O)NC2CCOCC2)cc(C)n2c(CC3CCC(F)(F)CC3)c(C(F)(F)F)nc12` [Compound 133, 3-[(4,4-Difluorocyclohexyl)methyl]-8-methoxy-5-methyl-N-(tetrahydro-2H-pyran-4-yl)-2-(trifluoromethyl)imidazo[1,2-a]pyridine-7-carboxamide], the pIC50 was not below 7.00.

Take `CCOC(=O)C1(NC(=O)c2cc(Cl)n3c(CC4CCC(F)(F)CC4)c(C(F)(F)F)nc3c2)CC1` [Compound 135, Ethyl 1-{5-chloro-3-[(4,4-difluorocyclohexyl)methyl]-2-(trifluoromethyl)imidazo[1,2-a]pyridine-7-carboxamide}cyclopropanecarboxylate]: the pIC50 is not below 7.00.

On to `Cc1cc(C(=O)NC2CC3(COC3)C2)cc2nc(C(C)(F)F)c(CC3CCC(F)(F)CC3)n12` [Compound 136, 3-[(4,4-Difluorocyclohexyl)methyl]-2-(1,1-difluoroethyl)-5-methyl-N-(2-oxaspiro[3.3]heptan-6-yl)imidazo[1,2-a]pyridine-7-carboxamide], for which the pIC50 is not below 7.00.

As to `Cc1cc(C(=O)NC2CC3(COC3)C2)cc2nc(C(C)(C)C)c(CC3CCC(F)(F)CC3)n12` [Compound 137, 2-tert-Butyl-3-[(4,4-difluorocyclohexyl)methyl]-5-methyl-N-(2-oxaspiro[3.3]heptan-6-yl)imidazo[1,2-a]pyridine-7-carboxamide], the pIC50 was not below 7.00.

Regarding `CCOC(=O)CNC(=O)c1cc(C#N)n2c(CC3CCC(F)(F)CC3)c(C(F)(F)F)nc2c1` [Compound 139, Ethyl 2-{5-cyano-3-[(4,4-difluorocyclohexyl)methyl]-2-(trifluoromethyl)imidazo[1,2-a]pyridine-7-carboxamide}acetate], the pIC50 was not below 7.00.

`N#Cc1cc(C(=O)NC2CCOC2=O)cc2nc(C(F)(F)F)c(CC3CCC(F)(F)CC3)n12` (stereo not drawn) [Compound 140, 5-Cyano-3-[(4,4-difluorocyclohexyl)methyl]-N-(2-oxotetrahydrofuran-3-yl)-2-(trifluoromethyl)imidazo[1,2-a]pyridine-7-carboxamide]: the negative logarithm of the IC50 (pIC50) was not below 7.00.

`COC1(CNC(=O)c2cc(C#N)n3c(CC4CCC(F)(F)CC4)c(C(F)(F)F)nc3c2)CCOCC1` [Compound 141, 5-Cyano-3-[(4,4-difluorocyclohexyl)methyl]-N-[(4-methoxytetrahydro-2H-pyran-4-yl)methyl]-2-(trifluoromethyl)imidazo[1,2-a]pyridine-7-carboxamide]: the pIC50 was not below 7.00.

Still in this assay, the particulars now being: human Cav3.2-expressing KJMGER8 cells (Namalwa-derived); calcium response induced by 5 mmol/L CaCl2; 3 μmol/L mibefradil as reference; read-out: IC50 for the human Cav3.2 T-type Ca2+ current.
Consider `O=C(NCc1cccc(O)c1)c1cc(Cl)n2c(CC3CCC(F)(F)CC3)c(C(F)(F)F)nc2c1` [Compound 103, 5-Chloro-3-[(4,4-difluorocyclohexyl)methyl]-N-(3-hydroxybenzyl)-2-(trifluoromethyl)imidazo[1,2-a]pyridine-7-carboxamide], for which the pIC50 was not below 7.00.

`O=C(NCCN(CCO)CCO)c1cc(Cl)n2c(CC3CCC(F)(F)CC3)c(C(F)(F)F)nc2c1` [Compound 109, N-{2-[Bis(2-hydroxyethyl)amino]ethyl}-5-chloro-3-[(4,4-difluorocyclohexyl)methyl]-2-(trifluoromethyl)imidazo[1,2-a]pyridine-7-carboxamide]: the pIC50 was not below 7.00.

For the compound `Cc1cc(C(O)c2nc3ccccc3[nH]2)cc2nc(C(F)(F)F)c(CC3CCC(F)(F)CC3)n12` (stereo not drawn) [Compound 112, (1H-Benzo[d]imidazol-2-yl){3-[(4,4-difluorocyclohexyl)methyl]-5-methyl-2-(trifluoromethyl)imidazo[1,2-a]pyridin-7-yl}methanol], the pIC50 is not below 7.00.

As for `Cc1cc(C(O)c2nc3ccccc3n2C)cc2nc(C(F)(F)F)c(CC3CCC(F)(F)CC3)n12` (stereo not drawn) [Compound 120, {3-[(4,4-Difluorocyclohexyl)methyl]-5-methyl-2-(trifluoromethyl)imidazo[1,2-a]pyridin-7-yl}(1-methyl-1H-benzo[d]imidazol-2-yl)methanol], the pIC50 is not below 7.00.

In the case of `Cc1cc(C(=O)NC2CCC3(CC2)COC3)cc2nc(C(F)(F)F)c(CC3CCC(F)(F)CC3)n12` [Compound 126, 3-[(4,4-Difluorocyclohexyl)methyl]-5-methyl-N-(2-oxaspiro[3.5]nonan-7-yl)-2-(trifluoromethyl)imidazo[1,2-a]pyridine-7-carboxamide], the pIC50 is not below 7.00.

For `Cc1cc(NC(=O)c2cc(C#N)n3c(CC4CCC(F)(F)CC4)c(C(F)(F)F)nc3c2)on1` [Compound 138, 5-Cyano-3-[(4,4-difluorocyclohexyl)methyl]-N-(3-methylisoxazol-5-yl)-2-(trifluoromethyl)imidazo[1,2-a]pyridine-7-carboxamide], the pIC50 is not below 7.00.

Source of the values: patent publication US9540366B2, “Ring-fused heterocyclic compound” (Kyowa Hakko Kirin Co., Ltd., priority 2012, dated 2017).
